By EC50 is commonly meant the concentration at which the effect is half-maximal. Lower therefore signals a more potent agent.

The target of one experiment is AMPK. Put plainly: AMPK activation, enzyme-linked immunosorbent assay. In kind it is biochemical. The conditions noted are these: Table 8, compounds of Table 1. The procedure:
Compounds of Table 1 were assayed for their ability to activate AMPK using an enzyme-linked immunosorbent assay.
Compounds of Table 2 were assayed for their ability to activate AMPK using an enzyme-linked immunosorbent assay.
Compounds of Table 3 were assayed for their ability to activate AMPK using an enzyme-linked immunosorbent assay.
Compounds of Table 4 were assayed for their ability to activate AMPK using an enzyme-linked immunosorbent assay.
Compounds of Table 5 were assayed for their ability to activate AMPK using an enzyme-linked immunosorbent assay.
Compounds of Table 6 were assayed for their ability to activate AMPK using an enzyme-linked immunosorbent assay.
Compounds of Table 7 were assayed for their ability to activate AMPK using an enzyme-linked immunosorbent assay.
The molecule `N#Cc1ccc(CN2CCC(Oc3ccc4oc(C(=O)NC5CCN(Cc6ccccc6)CC5)cc4c3)CC2)cc1` [Compound 1-114, N-(1-benzylpiperidin-4-yl)-5-(1-(4-cyanobenzyl)piperidin-4-yloxy)benzofuran-2-carboxamide] came in with an EC50 of 100 to 500 nM.

The molecule `O=C(N[C@H]1CCN(Cc2ccncc2)C1)c1ccc(OC2CCN(c3ccc(C(F)(F)F)cc3)CC2)cn1` [Compound 1-30, (S)-N-(1-(pyridin-4-ylmethyl)pyrrolidin-3-yl)-5-(1-(4-(trifluoromethyl)phenyl)piperidin-4-yloxy)picolinamide] returned an EC50 of under 100 nM. Still for that read-out and setting: as for `O=C(N[C@@H]1CCNC1)c1cc2cc(OC3CCN(c4ccc(C(F)(F)F)cc4)CC3)ccc2o1` [Compound 1-121, (R)-N-(pyrrolidin-3-yl)-5-(1-(4-(trifluoromethyl)phenyl)piperidin-4-yloxy)benzofuran-2-carboxamide], the figure is over 10000 nM. Regarding `COC(=O)c1ccc(CN2CCC(NC(=O)c3ccc(OC4CCN(c5ccc(C#N)cc5)CC4)cn3)CC2)cc1` [Compound 1-7, methyl 4-((4-(5-(1-(4-cyanophenyl)piperidin-4-yloxy)picolinamido)piperidin-1-yl)methyl)benzoate], the EC50 was under 100 nM. The same measure, in the same setting: as for `N#Cc1ccc(CN2CCC(Oc3ccc4oc(C(=O)NC5CCN(Cc6ccncc6)CC5)cc4c3)CC2)cc1` [Compound 1-79, 5-(1-(4-cyanobenzyl)piperidin-4-yloxy)-N-(1-(pyridin-4-ylmethyl)piperidin-4-yl)benzofuran-2-carboxamide], the figure is 100 to 500 nM. The molecule `O=C(NC1CCN(Cc2ccccc2)CC1)c1cc2cc(OC3CCN(Cc4ccc(F)c(F)c4)CC3)ccc2o1` [Compound 1-74, N-(1-benzylpiperidin-4-yl)-5-(1-(3,4-difluorobenzyl)piperidin-4-yloxy)benzofuran-2-carboxamide] displayed an EC50 of 100 to 500 nM. Same read-out and setting: as for `O=C(NC1CCN(Cc2ccc(F)cc2)CC1)c1cc2ccc(OC3CCN(c4ccc(C(F)(F)F)cc4)CC3)cc2o1` [Compound 1-91, N-(1-(4-fluorobenzyl)piperidin-4-yl)-6-(1-(4-(trifluoromethyl)phenyl)piperidin-4-yloxy)benzofuran-2-carboxamide], the figure is over 10000 nM; as for `O=C(N[C@H]1CCNC1)c1cc2cc(OC3CCN(Cc4ccc(Cl)cc4)CC3)ccc2o1` [Compound 1-128, (S)-5-(1-(4-chlorobenzyl)piperidin-4-yloxy)-N-(pyrrolidin-3-yl)benzofuran-2-carboxamide], over 10000 nM; as for `N#Cc1ccc(CN2CCC(NC(=O)c3ccc(OC4CCN(c5ccc(C(F)(F)F)cc5)CC4)cn3)CC2)cc1` [Compound 1-4, N-(1-(4-cyanobenzyl)piperidin-4-yl)-5-(1-(4-(trifluoromethyl)phenyl)piperidin-4-yloxy) picolinamide], under 100 nM.

For the molecule `O=C(NC1CCN(Cc2ccncc2)CC1)c1ccc(OC2CCN(c3ccc(C(F)(F)F)cc3)CC2)nc1` [Compound 1-10, N-(1-(pyridin-4-ylmethyl)piperidin-4-yl)-6-(1-(4-(trifluoromethyl)phenyl)piperidin-4-yloxy)nicotinamide], the concentration for a half-maximal effect (EC50) is under 100 nM.

Staying with this experiment, now noted: Table 9, compounds of Table 2.
`CC(=O)n1c2c(c3cc(C(=O)NC4CCN(Cc5cccnc5)CC4)ccc31)CN(Cc1ccc(C(F)(F)F)cc1)CC2` [Compound 2-20, 5-acetyl-N-(1-(pyridin-3-ylmethyl)piperidin-4-yl)-2-(4-(trifluoromethyl)benzyl)-2,3,4,5-tetrahydro-1H-pyrido[4,3-b]indole-8-carboxamide] displayed a concentration giving a half-maximal response (EC50) of 1000 to 5000 nM. The same measure, in the same setting: as for `O=C(NC1CCN(Cc2cccnc2)CC1)c1ccc2[nH]c3c(c2c1)CN(Cc1ccc(F)cc1)CC3` [Compound 2-8, 2-(4-fluorobenzyl)-N-(1-(pyridin-3-ylmethyl)piperidin-4-yl)-2,3,4,5-tetrahydro-1H-pyrido[4,3-b]indole-8-carboxamide], the figure is 5000 to 10000 nM.

Still in this experiment, the particulars now being: Table 10, compounds of Table 3.
The molecule `O=C(NC1CCN(C(=O)c2ccc(F)cc2)CC1)c1nc2ccc(OC3CCN(c4ccc(C(F)(F)F)cc4)CC3)cc2o1` [Compound 3-4, N-(1-(4-fluorobenzoyl)piperidin-4-yl)-6-(1-(4-(trifluoromethyl)phenyl)piperidin-4-yloxy)benzo[d]oxazole-2-carboxamide] came in with an EC50 of under 100 nM.

Staying with this experiment, now noted: Table 12, compounds of Table 5.
Regarding `N#Cc1ccc(CN2CCC(NC(=O)c3ccc(OC4CCN(c5ccc(C#N)cc5)CC4)c(F)c3)CC2)cc1` [Compound 5-45, N-(1-(4-cyanobenzyl)piperidin-4-yl)-4-(1-(4-cyanophenyl)piperidin-4-yloxy)-3-fluorobenzamide], the EC50 is under 1000 nM.

`O=C(NC1CCN(Cc2ccccc2)CC1)c1ccc(OC2CCN(c3cccs3)CC2)c(Cl)c1` [Compound 5-10, N-(1-benzylpiperidin-4-yl)-3-chloro-4-(1-(thiophen-2-yl)piperidin-4-yloxy)benzamide] registered an EC50 of 1000 to 10000 nM.

Still in this experiment, the particulars now being: Table 13, compounds of Table 6.
Molecule `CS(=O)(=O)c1ccc(CN2CCN(C(=O)c3ccc4cc(C(=O)NC5CCN(Cc6ccc(C#N)cc6)CC5)oc4c3)CC2)cc1` [Compound 6-2, N-(1-(4-cyanobenzyl)piperidin-4-yl)-6-(4-(4-(methylsulfonyl)benzyl)piperazine-1-carbonyl) benzofuran-2-carboxamide] had an EC50 of 100 to 1000 nM. The same measure, in the same setting: as for `N#Cc1ccc(CN2CCC(NC(=O)c3cc4cc(NC(=O)C5CCN(Cc6ccc(C#N)c(F)c6)CC5)ccc4o3)CC2)cc1` [Compound 6-48, 1-(4-cyano-3-fluorobenzyl)-N-(2-(1-(4-cyanobenzyl)piperidin-4-ylcarbamoyl)benzofuran-5-yl)piperidine-4-carboxamide], the figure is 100 to 1000 nM; as for `COc1ccc(N2CCN(C(=O)c3ccc4oc(C(=O)NC5CCN(Cc6ccc(C#N)cc6)CC5)cc4c3)CC2)cc1` [Compound 6-106, N-(1-(4-cyanobenzyl)piperidin-4-yl)-5-(4-(4-methoxyphenyl)piperazine-1-carbonyl)benzofuran-2-carboxamide], under 100 nM.

The molecule `CS(=O)(=O)c1ccc(CN2CCN(C(=O)c3ccc4oc(C(=O)NC5CCN(Cc6ccc(C(F)(F)F)cc6)CC5)cc4c3)CC2)cc1` [Compound 6-144, 5-(4-(4-(methylsulfonyl)benzyl)piperazine-1-carbonyl)-N-(1-(4-(trifluoromethyl)benzyl)piperidin-4-yl)benzofuran-2-carboxamide] registered an EC50 of under 100 nM.

On to `O=C(NC1CCN(Cc2cc(F)cc(F)c2)CC1)c1cc2cc(CN3CCC(Oc4ccc(C(F)(F)F)cc4)CC3)ccc2o1` [Compound 6-28, N-(1-(3,5-difluorobenzyl)piperidin-4-yl)-5-((4-(4-(trifluoromethyl)phenoxy)piperidin-1-yl)methyl) benzofuran-2-carboxamide], for which the EC50 is under 100 nM.

The experiment is the same for the next values; noted with them: Table 14, compounds of Table 7.
For `N#Cc1ccc(CN2CC[C@@H](NC(=O)c3ccc(C(=O)N4CCC(Oc5ccc(S(=O)(=O)C(F)(F)F)cc5)CC4)nc3)[C@H](F)C2)cc1` (relative stereo) [Compound 7-119, N-((trans)-1-(4-cyanobenzyl)-3-fluoropiperidin-4-yl)-6-(4-(4-(trifluoromethylsulfonyl)phenoxy)piperidine-1-carbonyl)nicotinamide], the EC50 was under 1000 nM. On the same count and under the same terms, as for `COc1ccc(C(=O)C2CCN(C(=O)c3ccc(C(=O)NC4CCN(Cc5ccc(OC)c(C#N)c5)CC4(C)C)cn3)CC2)cc1` (stereo not shown) [Compound 7-90, N-(1-(3-cyano-4-methoxybenzyl)-3,3-dimethylpiperidin-4-yl)-6-(4-(4-methoxybenzoyl)piperidine-1-carbonyl)nicotinamide], the figure is 1000 to 10000 nM; as for `Cc1cc(OC2CCN(C(=O)c3ccc(C(=O)NC4CCN(Cc5ccc(OC(F)(F)F)cc5)CC4)cn3)CC2)ccc1S(C)(=O)=O` [Compound 7-14, 6-(4-(3-methyl-4-(methylsulfonyl)phenoxy)piperidine-1-carbonyl)-N-(1-(4-(trifluoromethoxy)benzyl)piperidin-4-yl)nicotinamide], 1000 to 10000 nM.

Take `COc1ccc(C(=O)C2CCN(C(=O)c3ccc(C(=O)NC4CCN(Cc5cccc(C(F)(F)F)c5)C[C@@H]4F)cn3)CC2)cc1` (stereo partly drawn) [Compound 7-34, N-((3,4-trans)-3-fluoro-1-(3-(trifluoromethyl)benzyl)piperidin-4-yl)-6-(4-(4-methoxybenzoyl)piperidine-1-carbonyl)nicotinamide]: the EC50 is under 1000 nM.

Turning to `Cc1cc(OC2CCN(C(=O)c3ccc(C(=O)NC4CCN(Cc5ccc(OC(F)(F)C(F)F)cc5)CC4)cn3)CC2)ccc1S(C)(=O)=O` [Compound 7-64, 6-(4-(3-methyl-4-(methylsulfonyl)phenoxy)piperidine-1-carbonyl)-N-(1-(4-(1,1,2,2-tetrafluoroethoxy)benzyl)piperidin-4-yl)nicotinamide], the EC50 lay in the range of 1000 to 10000 nM. For the molecule `CS(=O)(=O)c1ccc(OC2CCN(C(=O)c3ccc(C(=O)Nc4ccc(Oc5ccc(S(F)(F)(F)(F)F)cc5)nc4)cn3)CC2)cc1` [Compound 7-1, 6-(4-(4-(methylsulfonyl)phenoxy)piperidine-1-carbonyl)-N-(6-(4-(pentafluorosulfanyl)phenoxy)pyridin-3-yl)nicotinamide], the EC50 lay within 1000 to 10000 nM.

With `CCNS(=O)(=O)c1ccc(CN2CCN(C(=O)c3ccc(C(=O)N4CCC(C(=O)c5ccc(OC)cc5)CC4)nc3)CC2)cc1` [Compound 7-91, N-ethyl-4-((4-(6-(4-(4-methoxybenzoyl)piperidine-1-carbonyl)nicotinoyl)piperazin-1-yl)methyl)benzenesulfonamide], the EC50 was in the range of 10000 to 20000 nM. Same read-out and setting: as for `COc1ccc(C(=O)C2CCN(C(=O)c3ccc(C(=O)NC4CCN(Cc5cccc(C#N)c5)C[C@H]4F)cn3)CC2)cc1` (stereo partly drawn) [Compound 7-29, N-((3,4-trans)-1-(3-cyanobenzyl)-3-fluoropiperidin-4-yl)-6-(4-(4-methoxybenzoyl)piperidine-1-carbonyl)nicotinamide], the figure is under 1000 nM.

The record behind these values is US9409884B2 (Rigel Pharmaceuticals, Inc., priority 2012, dated 2016).
